Data reported in patent publication US20230117034A1, “PYRAZOLOTRIAZINES” (Bayer Aktiengesellschaft, priority 2019, published 2023).
pIC50: −log10 of the molar value.

Experiments:
[1] = molecular target: T1, CDK12 protein level in CAL-120 breast cancer cells (Homo sapiens, UniProt Q9NYV4); test: CDK12 protein level: Protein Simple (CDK12, CAL-120); assay type: cell-based; details: CAL-120 cells, 18 h with compound, CDK12/HSP90 peak area ratio vs vehicle, median, read-out: CDK12 protein level in CAL-120 breast ca cells, DC50-[mol/l] (median)
T1 construct: endogenous in cells; host or cells: CAL-120 human breast cancer cells (DSMZ ACC 459)
T1 sequence (Q9NYV4 whole entry): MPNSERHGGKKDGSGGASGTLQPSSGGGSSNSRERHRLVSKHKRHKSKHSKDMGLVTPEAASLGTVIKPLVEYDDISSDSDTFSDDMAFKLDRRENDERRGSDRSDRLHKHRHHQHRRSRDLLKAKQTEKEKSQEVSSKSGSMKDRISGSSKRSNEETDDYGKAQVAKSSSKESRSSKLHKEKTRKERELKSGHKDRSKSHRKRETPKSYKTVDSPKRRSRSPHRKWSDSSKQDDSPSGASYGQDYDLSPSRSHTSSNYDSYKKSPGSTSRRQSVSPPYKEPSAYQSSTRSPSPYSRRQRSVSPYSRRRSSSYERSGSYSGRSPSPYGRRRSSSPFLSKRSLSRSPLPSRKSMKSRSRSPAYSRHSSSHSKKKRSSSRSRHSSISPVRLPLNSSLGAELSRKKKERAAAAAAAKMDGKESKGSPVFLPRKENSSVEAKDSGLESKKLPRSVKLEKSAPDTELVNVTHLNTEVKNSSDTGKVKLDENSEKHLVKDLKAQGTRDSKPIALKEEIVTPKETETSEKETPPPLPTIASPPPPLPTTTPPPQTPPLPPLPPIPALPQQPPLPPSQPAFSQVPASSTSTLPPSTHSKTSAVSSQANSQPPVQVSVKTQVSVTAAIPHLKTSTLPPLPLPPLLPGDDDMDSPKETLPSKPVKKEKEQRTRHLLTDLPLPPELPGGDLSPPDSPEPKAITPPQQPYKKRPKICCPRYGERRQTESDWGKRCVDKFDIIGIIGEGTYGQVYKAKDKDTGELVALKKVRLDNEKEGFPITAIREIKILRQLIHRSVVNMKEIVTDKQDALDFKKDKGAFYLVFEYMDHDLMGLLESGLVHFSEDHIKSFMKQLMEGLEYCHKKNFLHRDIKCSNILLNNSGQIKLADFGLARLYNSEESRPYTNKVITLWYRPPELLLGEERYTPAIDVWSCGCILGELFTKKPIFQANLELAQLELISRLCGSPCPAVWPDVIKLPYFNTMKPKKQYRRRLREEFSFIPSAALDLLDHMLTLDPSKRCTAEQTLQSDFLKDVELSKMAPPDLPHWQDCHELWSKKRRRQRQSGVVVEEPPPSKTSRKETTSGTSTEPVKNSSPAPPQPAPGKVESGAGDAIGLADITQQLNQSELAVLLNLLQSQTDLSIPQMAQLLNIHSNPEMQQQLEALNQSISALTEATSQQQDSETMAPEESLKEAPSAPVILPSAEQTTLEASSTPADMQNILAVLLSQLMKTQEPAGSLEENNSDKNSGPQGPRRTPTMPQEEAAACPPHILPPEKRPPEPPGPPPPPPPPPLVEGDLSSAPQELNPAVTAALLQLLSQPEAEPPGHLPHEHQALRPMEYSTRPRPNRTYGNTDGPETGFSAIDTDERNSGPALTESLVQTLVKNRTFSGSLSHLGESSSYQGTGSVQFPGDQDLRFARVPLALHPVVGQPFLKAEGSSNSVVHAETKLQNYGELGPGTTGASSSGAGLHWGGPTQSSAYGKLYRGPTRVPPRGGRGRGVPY
T1 sequence (O75909 whole entry partner): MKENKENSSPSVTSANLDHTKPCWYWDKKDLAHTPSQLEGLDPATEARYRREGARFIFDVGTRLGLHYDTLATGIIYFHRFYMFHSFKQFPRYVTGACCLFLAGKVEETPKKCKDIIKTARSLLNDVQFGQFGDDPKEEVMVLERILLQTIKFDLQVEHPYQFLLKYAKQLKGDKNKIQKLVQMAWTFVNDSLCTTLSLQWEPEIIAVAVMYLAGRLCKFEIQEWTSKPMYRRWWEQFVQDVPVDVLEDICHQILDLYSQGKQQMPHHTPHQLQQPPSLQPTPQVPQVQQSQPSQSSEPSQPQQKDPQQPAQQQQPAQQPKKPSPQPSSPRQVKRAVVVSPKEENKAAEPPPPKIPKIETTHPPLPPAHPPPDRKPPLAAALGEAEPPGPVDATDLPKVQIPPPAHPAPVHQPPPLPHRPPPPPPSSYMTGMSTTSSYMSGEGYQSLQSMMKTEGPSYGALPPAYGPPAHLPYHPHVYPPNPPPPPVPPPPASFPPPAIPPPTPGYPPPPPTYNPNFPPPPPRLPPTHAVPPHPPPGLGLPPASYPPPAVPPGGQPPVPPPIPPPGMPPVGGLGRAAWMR
Protocol: CAL-120 human breast cancer cells (DSMZ ACC 459) were seeded at 300,000 cells/well in 6-well plates containing 2 mL of growth medium (DMEM, 10% FCS, glutamine) and incubated for 24 h at 37° C. in an humidified incubator. Test compounds were added at various concentrations, control wells received solvent (DMSO), and the plates were incubated for another 18 h at 37° C. Cells were washed 2 times with PBS and lysed in 75 microL lysis buffer (MSD-Puffer (MSD, #R60TX-2), +1% 505S+PhosSTOP (Roche #04906837001)+complete mini (Roche #04693159001)) by scraping. The lysates were pushed 2 times through Qiashedders followed by centrifugation at 14,000 rpm for 30-50 sec. The supernatant was stored at −20° C. Proteins were separated by applying 0.4 microgramms of protein lysate to Protein Simple 66-440 kDa (Protein Simple #SM-S002) size assay columns on a PEGGY SUE or SALLY SUE equipment according to the supplier's manual. CDK12 and HSP90 (loading control) were detected using anti-human CDK12 antibody (Cell Signaling Technologies (CST) #11793) at 1:25 dilution and anti-human HSP90 antibody (CST #4877) at 1:5,000 dilution. CDK12 and HSP90 peak areas were determined using Protein Simple Compass software. Ratio of CDK12/HSP90 peak areas were calculated for each sample, and […] values (degrading concentration to achieve 50% reduction relative to vehicle treated control) were determined by means of a 4 parameter fit.

[2] = test system: BRCA1 mRNA expression in CAL-120 cells; test: qRT-PCR assay: BRCA1 mRNA expression in CAL-120; assay type: cell-based; details: Homo sapiens; Inhibition of BRCA1 mRNA expression in CAL-120 cells; median; read-out: RTqPCR-CAL-120, IC50, BRCA1 (median)
Protocol: 3. qRT-PCR Assay: BRCA, ATR, MCL1 in MDA-MB-231, CAL-120
Tissue cultured human MDA-MB-231 human breast cancer cells were plated in 500 microL per well at 200,000 cells/well in a 24 well microtiter plate. After 24 h, the cells were exposed continuously for 24 h to test substances (substances were added with Tecan HP 0300 Dispenser). RNA was prepared using Qiagen RNeasy MiniKit (#74106), RNA was quantified using a NanoDrop Equipment, and 600 nano gamms of RNA was coverted to cDNA using a SuperScript VILO kit (Thermofisher #11755050) followed by qPCR amplification. BRCA1 and ATR gene expression was measured by RT-qPCR and normalised to GAPDH housekeeping gene expression. qPCR primer sets have been purchased from Thermo Fisher Scientific/Applied Biosystems: BRCA1, #Hs 01556193; ATR, #Hs 00992123; GAPDH, #Hs 03929097.

| SMILES | DC50 [1] [nM] | pIC50 [2] |
| --- | --- | --- |
| OC1CCCN(c2nc(NCc3nc4ccccc4[nH]3)n3ncc(Br)c3n2)C1 (racemic) [Example 16, (rac)-1-(4-{[(1H-benzimidazol-2-yl)methyl]amino}-8-bromopyrazolo[1,5-a][1,3,5]triazin-2-yl)piperidin-3-ol] | 58.1 | – |
| Fc1ccc2[nH]c(CNc3nc(N4CCNCC4)nc4c(C5CC5)cnn34)nc2c1 [Example 190, 8-cyclopropyl-N-[(5-fluoro-1H-benzimidazol-2-yl)methyl]-2-(piperazin-1-yl)pyrazolo[1,5-a][1,3,5]triazin-4-amine] | 0.307 | – |
| FC(F)(F)c1cnn2c(NCc3nc4ccccc4[nH]3)nc(N3CCOCC3)nc12 [Example 241, N-[(1H-benzimidazol-2-yl)methyl]-2-(morpholin-4-yl)-8-(trifluoromethyl) pyrazolo[1,5-a][1,3,5]triazin-4-amine] | 7.29 | – |
| Clc1cnn2c(NCc3nc4ccccc4[nH]3)nc(N3CCOCC3)nc12 [Example 15, N-[(1H-benzimidazol-2-yl)methyl]-8-chloro-2-(morpholin-4-yl)pyrazolo[1,5-a][1,3,5]triazin-4-amine] | 2.98 | 7.53 |
| C[C@H]1CN(c2nc(NCc3nc4ccccc4[nH]3)n3ncc(Br)c3n2)CCN1 [Example 169, N-[(1H-benzimidazol-2-yl)methyl]-8-bromo-2-[(3S)-3-methylpiperazin-1-yl]pyrazolo[1,5-a][1,3,5]triazin-4-amine] | 1.04 | – |
| CC(C)c1cnn2c(NCc3nc4ccccc4[nH]3)nc(Nc3ccncc3)nc12 [Example 14, N^4-[(1H-benzimidazol-2-yl)methyl]-8-(propan-2-yl)-N^2-(pyridin-4-yl)pyrazolo[1,5-a][1,3,5]triazine-2,4-diamine] | 9.38 | – |
